Patent US5571799A, “(2'-5') oligoadenylate analogues useful as inhibitors of host-v5.-graft response” (Basco, Ltd., priority 1994, dated 1996)
“Also recorded” adds a separate entry of the source.

How the values were obtained:
[1] = system: natural compound 2'-5'A3 in blood plasma and blood cells; experiment: Duration of activity in the blood of rabbits (radioimmune and fluoroimmune detection); assay type: in vivo; conditions: 10 min after one injection, 10 μg/kg, rabbit
Description: Duration of (2'-5')A2 Ar-epoxy Activity in the Blood of Rabbits
In order to study (2'-5')A2 Ar-epoxy pharmacodynamics, the radioimmune and fluoroimmune techniques were developed for its detection in tissue.

T-helpers = experiment: Immune system of monkeys: T-helpers, flow cytofluorografic analysis; assay type: in vivo, Macaque Rh. monkeys
Description: (§1) The experiments were performed on 4 year-old Macaque Rh. monkeys. The levels of the principal subpopulations of T-lymphocytes, IgA, IgG, IgM and the amount of α- and γ-interferon and interleukin II after administration (2'-5')olygoadenylate and its analogies at the concentration of 50 and 25 μg/kg of the body weight was investigated.
(§2) FLOW CYTOFLUOROGRAFIC ANALYSIS OF LYMPHOCYTE SUBSETS
(§3) Blood samples (100 μl of whole blood) were placed into a 12×17 tube. To these cells 20 μl of purified monoclonal antibodies were added with specificity for human cytotoxic/suppressor cells anti-Leu-2a (CD8), human helper/inducer anti-Leu-3a (CD4) and FITC conjugated monoclonal antibodies with specificity for natural killer cells-anti-Leu11c (CD16) (Becton Dickinson, San Jose). After 30 minutes incubation on ice, the cells were washed once and 20 μl of goat-antimouse chain phycoerythrin (Sigma P1286) conjugate were added to the tube with anti-Leu-2a and anti-Leu-3a monoclonal antibodies.
(§4) After erythrocyte lysing with FACS lysing solution (Becton Dickinson, San Jose) the cells were analyzed on FACScan flow cytometer (Becton Dickinson, San Jose) with scatter gate set on lymphocyte fraction.

T-killers = experiment: Immune system of monkeys: T-killers, flow cytofluorografic analysis; assay type: in vivo, Macaque Rh. monkeys
Description: as §1, §2, §3, §4

interleukin-II = experiment: Immune system of monkeys: interleukin-II; assay type: in vivo, Macaque Rh. monkeys
Description: Immunosuppressive activity of the prototype 2'-5'A3 and two analogues (2'-5')A2 Ar-epoxy and (2'-5')A2 A^l-epoxy were investigated in monkeys. The experiments were performed on 4 year-old Macaque Rh. monkeys. The levels of the principal subpopulations of T-lymphocytes, IgA, IgG, IgM and the amount of α- and γ-interferon and interleukin II after administration (2'-5')olygoadenylate and its analogies at the concentration of 50 and 25 μg/kg of the body weight was investigated.
(§5) Serum levels of IgG, IgA, IgM were determined by radial immunodiffusion using antisera against human immunoglobulin A, M, G. The amount of interferon and interleukine-II were determined by the method of Lopez-Botet M. et al., 1982.

IgG, IgA, IgM = experiment: Immunoglobulins in monkeys after kidney transplantation; assay type: in vivo, Macaque Rh. monkeys; conditions: 50 μg/kg IV; for IgA: 2 days pre-op. 0.4; for IgM: 2 days pre-op. 0.8; for IgG: 2 days pre-op. 13
Description: as §5
(§6) The experiments were performed on 4 year-old Macaque Rh. monkeys. Each cohort consisted of 3 animals. […] The results of the experiments were evaluated clinically: by the presence or absence of urination from the ureterocutaneostoma.
During our experiments we have divided monkeys into two groups, three monkeys to each group. For the first group (2'-5')A2 Ar-epoxy was administered intravenously at concentration of 50 μg/kg two days before the operation and at the second, sixth, and twelfth day after the operation and then every sixth day. […] After transplantation kidney functions were restored within 10 hours.

transplanted kidney = experiment: Kidney cross-allotransplantation in monkeys: graft function; assay type: in vivo, Macaque Rh. monkeys
Description: as §6
After intravenous anesthesia with Ketalar®, an extraperitoneal access to the left kidney was performed through layer by layer cuts to the left lumbar region. The kidney was excised from the surrounding tissues. A clamp was applied to the vessel limb; the artery, the vein and the ureter each were prepared for anastomosis separately. The kidney was excised and transferred for hypothermal conservation in Collins' solution.
The donor kidney was transplanted into the recipient. […] anastomosis was performed: the graft arteries and veins attached to the appropriate recipient kidney vessels through plastic tubes. The kidney having been resuscitated by in blood flow, acquired the normal color and turgor. Additional hemostasis in the wound was performed. Ureterocutaneostomy was performed, which was followed by applying layer-upon-layer sutures on the wound and its aseptic dressing.
The monkeys were narcotized by means of the intravenous anesthesia with Ketalar® and subjected to medial laparotomy from the xiphoid down to the pubic joint. Access to the left Kidney was made extraperitoneally. The kidney was teased from the surrounding tissues. A clamp was put on the vessel limb; the artery, the vein and the ureter were dressed separately; the kidney was cut and transferred for hypothermal conservation in Collins' solution.
The internal iliac artery and the external iliac vein were extracted extra-peritoneally, immobilized and prepared for anastomosis. The donor kidney was transferred to the recipient. Vessel anastomosis was performed: the graft arteries were anastomosed with the internal iliac artery according to the end-to-end method and the graft veins were anastomosed with the external iliac vein according to the end-to-side method. The kidney having been engaged in blood flow, acquired a normal color and turgor. […]

[2] = single IV 25 μg/kg, day 0 (baseline)
[3] = single IV 50 μg/kg, day 0 (baseline)

Adenylyl (2'-5')adenylyl (2'-5')-9-(2,3-anhydro-β-D-ribofuranosyl) adenine disodium salt [(2'-5')A2 Ar-epoxy]
decrease of the level of natural compounds in blood plasma [1]: 10 fold
increase of concentration of natural compounds in blood cells [1]: 10 fold
T-helpers (T-helpers; [2]): 16%
T-helpers (T-helpers; single IV 25 μg/kg, day 1): 20%
T-helpers (T-helpers; single IV 25 μg/kg, day 2): 10%
T-helpers (T-helpers; single IV 25 μg/kg, day 4): 4%
T-helpers (T-helpers; single IV 25 μg/kg, day 8): 5.3%
T-helpers (T-helpers; single IV 25 μg/kg, day 12): 7%
T-helpers (T-helpers; single IV 25 μg/kg, day 21): 23%
T-helpers (T-helpers; [3]): 30%
T-helpers (T-helpers; single IV 50 μg/kg, day 1): 29%
T-helpers (T-helpers; single IV 50 μg/kg, day 2): 15%
T-helpers (T-helpers; single IV 50 μg/kg, day 4): 1.2%
T-helpers (T-helpers; single IV 50 μg/kg, day 8): 5.0%
T-helpers (T-helpers; single IV 50 μg/kg, day 12): 7.0%
T-helpers (T-helpers; single IV 50 μg/kg, day 21): 30.6%
T-killers (T-killers; [2]): 9.9%
T-killers (T-killers; single IV 25 μg/kg, day 1): 12%
T-killers (T-killers; single IV 25 μg/kg, day 2): 8%
T-killers (T-killers; single IV 25 μg/kg, day 4): 4%
T-killers (T-killers; single IV 25 μg/kg, day 8): 4%
T-killers (T-killers; single IV 25 μg/kg, day 12): 4%
T-killers (T-killers; single IV 25 μg/kg, day 21): 6.4%
T-killers (T-killers; [3]): 12%
T-killers (T-killers; single IV 50 μg/kg, day 1): 9%
T-killers (T-killers; single IV 50 μg/kg, day 2): 7%
T-killers (T-killers; single IV 50 μg/kg, day 4): 1.5%
T-killers (T-killers; single IV 50 μg/kg, day 8): 4.4%
T-killers (T-killers; single IV 50 μg/kg, day 12): 9%
T-killers (T-killers; single IV 50 μg/kg, day 21): 19.3%
effect on interleukin-II production, in words (interleukin-II; monkeys, single IV, two weeks): suppresses production of interleukin-II
Interleukin-II (interleukin-II; [2]): 4 Units per 10,000 lymphocytes
Interleukin-II (interleukin-II; single IV 25 μg/kg, day 1): 2 Units per 10,000 lymphocytes
Interleukin-II (interleukin-II; single IV 25 μg/kg, day 2): 2 Units per 10,000 lymphocytes
Interleukin-II (interleukin-II; single IV 25 μg/kg, day 12): 2 Units per 10,000 lymphocytes
Interleukin-II (interleukin-II; single IV 25 μg/kg, day 21): 4 Units per 10,000 lymphocytes
Interleukin-II (interleukin-II; [3]): 8 Units per 10,000 lymphocytes
Interleukin-II (interleukin-II; single IV 50 μg/kg, day 1): 4 Units per 10,000 lymphocytes
Interleukin-II (interleukin-II; single IV 50 μg/kg, day 2): 4 Units per 10,000 lymphocytes
Interleukin-II (interleukin-II; single IV 50 μg/kg, day 12): 4 Units per 10,000 lymphocytes
Interleukin-II (interleukin-II; single IV 50 μg/kg, day 21): 4 Units per 10,000 lymphocytes
IgA (IgG, IgA, IgM; day 5 post-op.): 2.07 g/L
IgM (IgG, IgA, IgM; day 5 post-op.): 0.75 g/L
IgG (IgG, IgA, IgM; day 5 post-op.): 12.2 g/L
IgA (IgG, IgA, IgM; day 8 post-op.): 2.5 g/L
IgM (IgG, IgA, IgM; day 8 post-op.): 0.86 g/L
IgG (IgG, IgA, IgM; day 8 post-op.): 12.75 g/L
prevention of transplant rejection / kidney function, in words (transplanted kidney; 50 μg/kg IV, disodium salt): protects the transplant from rejection, and renews normal functioning of the transplanted kidney; also recorded: transplanted kidney resumes and maintains its normal functions; also recorded: effectively prevent the rejection
time to restoration of kidney function after transplantation (transplanted kidney; first group: 50 μg/kg IV 2 days pre-op., days 2, 6, 12, then every sixth day): ≤ 10 h
time to restoration of kidney function after transplantation (transplanted kidney; second group: 50 μg/kg 2 days pre-op. and every other day): ≤ 10 h
